Measured values taken from patent US11161839B2, “2-quinolone derived inhibitors of BCL6” (Cancer Research Technology Limited, priority 2017, dated 2021).

How the values were obtained:
[1] = molecular target: human BCL6 BTB domain (Trx-6xHis-BCL6) (Homo sapiens (Human), UniProt P41182); assay: HTRF in vitro assay (BCL6 BTB domain / BCOR-AF633 peptide); format: binding
[2] = molecular target: BCL6-NCOR2(SMRT) corepressor protein-protein interaction (Homo sapiens (Human), UniProt P41182); assay: NanoBRET cell assay in transfected HEK293T cells; format: cell-based; details: further generated data (Table 2b); HEK293T cells, 6 hr; read-out: NanoBRET cell pIC50 (converted)
[3] = further generated data (Table 1b), 1 nM Trx-6xHis-BCL6, 0.5 nM anti-6xHis-Terbium cryptate
[4] = initially generated data (Table 1a), 10 nM Trx-6xHis-BCL6, 1 nM anti-6xHis-Terbium cryptate

Row | SMILES | HTRF pIC50 [1, 3] | IC50 [2] | IC50 ([1]; further generated data (Table 1b), 1 nM Trx-6xHis-BCL6, 0.5 nM anti-6xHis-Terbium cryptate, read-out: HTRF pIC50 (converted)) | HTRF pIC50 [1, 4]
1 | CC(Nc1nc(=O)n(C)c2ccc(Nc3nc(N4CCC(C(=O)N(C)C)CC4)ncc3Cl)cc12)c1ncccn1 (centres unmarked) [Example 12d, 1-(5-chloro-4-((1-methyl-2-oxo-4((1-(pyrimidin-2-yl)ethyl)amino)-1,2-dihydroquinazolin-6-yl)amino)pyrimidin-2-yl)-N,N-dimethylpiperidine-4-carboxamide] | 6.78 | 11.2 µM |  | 
2 | Cn1c(=O)cc(N[C@H](CO)C2CC2)c2cc(Nc3ccnc(Cl)c3C#N)ccc21 [Example 11a, (S)-2-chloro-4-((4-((1-cyclopropyl-2-hydroxyethyl)amino)-1-methyl-2-oxo-1,2-dihydroquinolin-6-yl)amino)nicotinonitrile] | 6.78 | 3.39 µM |  | 
3 | CC(Nc1cc(=O)n(C)c2ccc(Nc3ccnc(Cl)c3C#N)cc12)c1ncc(-c2cccnc2)cn1 (centres unmarked) [Example 20, 2-chloro-4-((1-methyl-2-oxo-4-((1-(5-(pyridin-3-yl)pyrimidin-2-yl)ethyl)amino)-1,2-dihydroquinolin-6-yl)amino)nicotinonitrile] | 7.46 | 0.479 µM |  | 
4 | C[C@@H](Nc1cc(=O)n(C)c2ccc(Nc3nc(N4CCC(C(=O)N(C)C)CC4)ncc3Cl)cc12)C1CC1 [Example 12b, (R)-1-(5-chloro-4-((4-((1-cyclopropylethyl)amino)-1-methyl-2-oxo-1,2-dihydroquinolin-6-yl)amino)pyrimidin-2-y1)-N,N-dimethylpiperidine-4-carboxamide] |  | 1.29 µM | 0.302 µM | 
5 | CC(Nc1cc(=O)n(C)c2ccc(Nc3nc(N4CC5(CCOCC5)C4)ncc3Cl)cc12)c1ncccn1 (centres unmarked) [Example 17h, 6-((5-chloro-2-(7-oxa-2-azaspiro[3.5]nonan-2-yl)pyrimidin-4-yl)amino)-1-methyl-4((1-(pyrimidin-2-yl)ethyl)amino)quinolin-2(1H)-one:formic acid (1:1)] | 6.20 | 4.17 µM |  | 
6 | CC(Nc1nc(=O)n(C)c2ccc(Nc3ccnc(Cl)c3C#N)cc12)c1ncccn1 (centres unmarked) [Example 10h] | 7.10 | 8.91 µM |  | 
7 | C[C@@H]1CN(c2ncc(Cl)c(Nc3ccc4c(c3)c(NC(C)(C)c3ncccn3)cc(=O)n4C)n2)C[C@H](C)O1 [Example 12f, 6-((5-chloro-2-((2S,6R)-2,6-dimethylmorpholino)pyrimidin-4-yl)amino)-1-methyl-4-((2-(pyrimidin-2-yl)propan-2-yl)amino)quinolin-2(1H)-one] | 6.57 | 2.45 µM |  | 
8 | Cn1c(=O)cc(NC(C)(C)c2ccccn2)c2cc(Nc3ccnc(Cl)c3C#N)ccc21 [Example 11b, 2-chloro-4-((1-methyl-2-oxo-4-((2-(pyridin-2-yl)propan-2-yl)amino)-1,2-dihydroquinolin-6-yl)amino)nicotinonitrile:formic acid (1:1)] | 6.52 | 1.29 µM |  | 
9 | C[C@@H](Nc1cc(=O)n(C)c2ncc(Nc3ccnc(Cl)c3C#N)cc12)C1CC1 [Example 24d, (R)-2-chloro-4-((5-((1-cyclopropylethyl)amino)-8-methyl-7-oxo-7,8-dihydro-1,8-naphthyridin-3-yl)amino)nicotinonitrile] | 6.53 | 4.47 µM |  | 
10 | CC(C)(Nc1cc(=O)n(CC2CCCCC2)c2ccc(Nc3ccnc(Cl)c3C#N)cc12)c1ncccn1 [Example 10o, 2-chloro-4-((1-(cyclohexylmethyl)-2-oxo-4-((2-(pyrimidin-2-yl)propan-2-yl)amino)-1,2-dihydroquinolin-6-yl)amino)nicotinonitrile] | 6.50 | 2.29 µM |  | 
11 | CN(C)C(=O)C1CCN(c2ncc(Cl)c(Nc3ccc4c(c3)c(NC3(C#N)CC3)cc(=O)n4C)n2)CC1 [Example 16b, 1-(5-chloro-4-((4-((1-cyanocyclopropyl)amino)-1-methyl-2-oxo-1,2-dihydroquinolin-6-yl)amino)pyrimidin-2-y1)-N,N-dimethylpiperidine-4-carboxamide] | 6.37 | 5.01 µM |  | 
12 | CC(Nc1cc(=O)n(C)c2ccc(Nc3cc(N4CCC(C(=O)N(C)C)CC4)ncc3Cl)cc12)c1ncccn1 (centres unmarked) [Example 15g, 1-(5-chloro-4-((1-methyl-2-oxo-4-((1-(pyrimidin-2-yl)ethyl)amino)-1,2-dihydroquinolin-6-yl)amino)pyridin-2-y1)-N,N-dimethylpiperidine-4-carboxamide] | 6.47 | 7.24 µM |  | 
13 | CC(Nc1cc(=O)n(C)c2ccc(Nc3cc(N4C[C@@H](C)O[C@@H](C)C4)ncc3Cl)cc12)c1ncccn1 (stereo partly drawn) [Example 15e, 6-((5-chloro-2-((2S,6R)-2,6-dimethylmorpholino)pyridin-4-yl)amino)-1-methyl-4-((1-(pyrimidin-2-yl)ethyl)amino)quinolin-2(1H)-one] | 6.28 | 4.27 µM |  | 
14 | COCC(C)(C)Nc1cc(=O)n(C)c2ccc(Nc3ccnc(Cl)c3C#N)cc12 [Example 19d, 2-chloro-4-((4-((1-methoxy-2-methylpropan-2-yl)amino)-1-methyl-2-oxo-1,2-dihydroquinolin-6-yl)amino)nicotinonitrile] | 6.51 | 8.71 µM |  | 
15 | Cn1c(=O)cc(NC(C)(C)c2ncc(C3CC3)cn2)c2cc(Nc3ccnc(Cl)c3C#N)ccc21 [Example 10a, 2-chloro-4-((4-((2-(5-cyclopropylpyrimidin-2-yl)propan-2-yl)amino)-1-methyl-2-oxo-1,2-dihydroquinolin-6-yl)amino)nicotinonitrile] | 7.53 | 0.513 µM |  | 
16 | C[C@@H](Nc1cc(=O)n(C)c2ccc(Nc3cc(C(=O)N4CCC4)nc(Cl)c3C#N)cc12)C1CC1 [Example 8c, (R)-6-(azetidine-1-carbonyl)-2-chloro-4-((4-((1-cyclopropylethyl)amino)-1-methyl-2-oxo-1,2-dihydroquinolin-6-yl)amino)nicotinonitrile] | 7.02 | 0.501 µM |  | 
17 | C[C@@H](Nc1nc(=O)n(C)c2ccc(Nc3ccnc(Cl)c3Cl)cc12)C1CC1 [Example 6d, (R)-4-((1-cyclopropylethyl)amino)-6-((2,3-dichloropyridin-4-yl)amino)-1-methylquinazolin-2(1H)-one] | 6.09 | 1.82 µM |  | 

Now from value to compound:

Row | HTRF pIC50 [1, 3] | IC50 [2] | IC50 ([1]; further generated data (Table 1b), 1 nM Trx-6xHis-BCL6, 0.5 nM anti-6xHis-Terbium cryptate, read-out: HTRF pIC50 (converted)) | HTRF pIC50 [1, 4] | SMILES
18 | 6.99 | 5.25 µM |  |  | CC(Nc1cc(=O)n(C)c2ccc(Nc3cc(C(=O)N(C)C)nc(Cl)c3C#N)cc12)c1ncccn1 (centres unmarked) [Example 19b]
19 | 6.56 | 2.82 µM |  | 6.36 | CC(Nc1cc(=O)n(C)c2ccc(Nc3ccnc(Cl)c3Cl)cc12)c1ncccn1 (centres unmarked) [Example 6a, 6-[(2,3-Dichloro-4-pyridyl)amino]-1-methyl-4-(1-pyrimidin-2-ylethylamino)quinolin-2-one]
20 | 5.88 | 5.37 µM |  | 6.15 | Cc1cc(C(C)Nc2cc(=O)n(C)c3ccc(Nc4ccnc(Cl)c4C#N)cc23)no1 (centres unmarked) [Example 1m, 2-chloro-4-[[1-methyl-4-[1-(5-methylisoxazol-3-yl)ethylamino]-2-oxo-6-quinolyl]amino]pyridine-3-carbonitrile]
21 | 7.78 | 0.55 µM |  |  | Cn1c(=O)cc(NC(C)(C)c2ncccn2)c2cc(Nc3cc(C(=O)N4CCC4)nc(Cl)c3C#N)ccc21 [Example 8a, 6-(Azetidine-1-carbonyl)-2-chloro-4-((1-methyl-2-oxo-4-((2-(pyrimidin-2-yl)propan-2-yl)amino)-1,2-dihydroquinolin-6-yl)amino)nicotinonitrile]
22 | 6.44 | 2.69 µM |  |  | CCOC(=O)c1cc(Nc2ccc3c(c2)c(NC(C)c2ncccn2)cc(=O)n3C)n2nccc2n1 (centres unmarked) [Example 10q, ethyl 7-((1-methyl-2-oxo-4-((1-(pyrimidin-2-yl)ethyl)amino)-1,2-dihydroquinolin-6-yl)amino)pyrazolo[1,5-a]pyrimidine-5-carboxylate]
23 | 6.96 | 1.78 µM |  |  | CNC(=O)c1cc(Nc2ccc3c(c2)c(N[C@H](C)C2CC2)cc(=O)n3C)c(C#N)c(Cl)n1 [Example 10i, (R)-6-chloro-5-cyano-4-((4-((1-cyclopropylethyl)amino)-1-methyl-2-oxo-1,2-dihydroquinolin-6-yl)amino)-N-methylpicolinamide]
24 | 7.31 | 0.933 µM |  | 6.76 | CNC(=O)c1cc(Nc2ccc3c(c2)c(NC(C)c2ncccn2)cc(=O)n3C)c(C#N)c(Cl)n1 (centres unmarked) [Example 1v, 6-chloro-5-cyano-N-methyl-4-[[1-methyl-2-oxo-4-(1-pyrimidin-2-ylethylamino)-6-quinolyl]amino]pyridine-2-carboxamide]
25 | 6.40 | 7.08 µM |  |  | CNC(=O)c1cc(Nc2ccc3c(c2)c(NC(C)c2ncccn2)cc(=O)n3C)c(C#N)c(C)n1 (centres unmarked) [Example 18b, 5-cyano-N, 6-dimethyl-4-((1-methyl-2-oxo-4-((1-(pyrimidin-2-yl)ethyl)amino)-1,2-dihydroquinolin-6-yl)amino)picolinamide]
